Assay results taken from ChEMBL document CHEMBL1201862, “PubChem BioAssay data set” (2004).
The source made the active and inactive calls.

Key:
[1] = microbe, parasite or virus in culture; type: functional; conditions: Mycobacterium tuberculosis
[2] = target: T1, Rac GTPase-activating protein 1 (Homo sapiens, UniProt Q9H0H5); assay: MgcRacGAP GTPase-activating activity inhibitors, confirmation, biochemical, ADP Hunter fluorescence, primary and confirmatory (AID 624330); type: functional
T1 sequence (Q9H0H5 whole entry): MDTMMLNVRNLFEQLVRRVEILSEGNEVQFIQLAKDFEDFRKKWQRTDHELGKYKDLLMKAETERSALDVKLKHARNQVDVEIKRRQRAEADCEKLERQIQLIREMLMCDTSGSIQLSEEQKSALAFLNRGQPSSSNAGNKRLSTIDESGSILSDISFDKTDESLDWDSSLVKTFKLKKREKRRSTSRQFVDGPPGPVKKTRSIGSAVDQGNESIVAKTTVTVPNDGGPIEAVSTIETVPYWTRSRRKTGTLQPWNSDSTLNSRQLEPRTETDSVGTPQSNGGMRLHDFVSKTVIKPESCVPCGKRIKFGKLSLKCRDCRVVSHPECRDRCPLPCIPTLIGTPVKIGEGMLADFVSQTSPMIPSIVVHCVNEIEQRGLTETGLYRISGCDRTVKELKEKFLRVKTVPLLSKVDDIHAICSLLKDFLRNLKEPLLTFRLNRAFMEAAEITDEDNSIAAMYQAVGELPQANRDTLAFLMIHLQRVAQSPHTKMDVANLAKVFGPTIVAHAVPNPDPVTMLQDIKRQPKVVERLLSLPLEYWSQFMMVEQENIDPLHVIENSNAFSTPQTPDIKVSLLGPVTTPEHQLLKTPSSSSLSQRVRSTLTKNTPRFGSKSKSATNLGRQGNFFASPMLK

[3] = P. falciparum Dd2 growth inhibitors, dose response, SYBR Green, cherry-picked samples (AID 1159567); type: functional, cell-based
INS1 = assay: beta cell apoptosis inhibitors, cytokine rescue, dose response, luminescence, retest (AID 449756); type: functional, cell-based; conditions: Rattus norvegicus;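 further: cell death triggered by IL-1 beta plus TNF-alpha plus IFN-gamma mixture; protective hits raise ATP signal compared with cytokine alone wells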
Cytochrome P450 2D6 = Cytochrome P450 2D6 (Homo sapiens, UniProt P10635);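 further: CYP2D6 member of a cytochrome P450 panel assay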
Cytochrome P450 1A2 = target: T2, Cytochrome P450 1A2 (Homo sapiens, UniProt P05177);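 further: PubChem cytochrome P450 panel assay, CYP1A2 panel member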
T2 sequence (P05177 whole entry): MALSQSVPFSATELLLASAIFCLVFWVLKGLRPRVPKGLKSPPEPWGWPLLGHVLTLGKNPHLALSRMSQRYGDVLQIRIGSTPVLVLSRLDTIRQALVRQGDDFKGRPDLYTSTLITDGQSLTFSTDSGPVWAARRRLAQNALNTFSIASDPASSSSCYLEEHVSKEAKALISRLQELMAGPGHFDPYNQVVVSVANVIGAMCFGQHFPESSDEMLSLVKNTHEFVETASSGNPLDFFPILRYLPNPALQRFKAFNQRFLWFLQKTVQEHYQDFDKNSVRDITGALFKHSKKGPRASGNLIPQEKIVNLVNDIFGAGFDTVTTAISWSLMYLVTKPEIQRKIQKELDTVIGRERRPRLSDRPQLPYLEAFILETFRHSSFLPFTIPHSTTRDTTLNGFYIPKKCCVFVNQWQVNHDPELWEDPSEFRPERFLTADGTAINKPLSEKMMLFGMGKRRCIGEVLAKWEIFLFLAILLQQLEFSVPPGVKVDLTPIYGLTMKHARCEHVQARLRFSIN

Cytochrome P450 3A4 = Cytochrome P450 3A4 (Homo sapiens, UniProt P08684);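 further: CYP3A4 tested as one member of a cytochrome P450 panel screen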
[4] = test system: Streptococcus sp. 'group A'; assay: growth inhibition of control SK(-) GAS strain, dose response, counter-screen for streptokinase expression inhibitor project, luminescence, kanamycin, BacTiterGlo, confirmation (AID 1900); type: functional, organism-based
Streptokinase A = target: T3, Streptokinase A (Streptococcus pyogenes serotype M1, UniProt P10520); assay: S. pyogenes streptokinase expression inhibitors, potency, dose response, plasminogen activation absorbance, OD405 (AID 1914); type: functional, Streptococcus pyogenes M1 GAS;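 further: secreted streptokinase activity via plasminogen activation per viability signal from cell pellet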
T3 sequence (P10520 whole entry): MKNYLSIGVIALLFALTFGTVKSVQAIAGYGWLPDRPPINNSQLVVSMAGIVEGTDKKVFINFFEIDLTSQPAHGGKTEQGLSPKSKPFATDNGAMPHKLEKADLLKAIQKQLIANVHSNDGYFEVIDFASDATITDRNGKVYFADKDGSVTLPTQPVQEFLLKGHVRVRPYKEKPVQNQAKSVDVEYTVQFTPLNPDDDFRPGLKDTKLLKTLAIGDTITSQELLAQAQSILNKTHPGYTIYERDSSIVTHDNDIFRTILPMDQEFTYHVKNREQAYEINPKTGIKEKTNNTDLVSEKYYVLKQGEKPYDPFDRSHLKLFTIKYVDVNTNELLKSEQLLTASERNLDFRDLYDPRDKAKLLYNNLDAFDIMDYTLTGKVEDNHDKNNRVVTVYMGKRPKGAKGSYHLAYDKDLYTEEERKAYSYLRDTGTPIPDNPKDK

Streptococcus = assay: Group A Streptococcus viability loss, dose response, counter-screen for streptokinase expression inhibitor project, luminescence, BacTiterGlo (AID 1915); type: functional, organism-based;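 further: potency for reduction of bacterial viability or growth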
[5] = target: T4, Heat shock factor protein 1 (Mus musculus, UniProt P38532); assay: HSF1 potentiators in luciferase reporter cells, confirmation, cell-based, NIH3T3, luminescence, dose retest (AID 435004); type: functional;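 further: stress induced by proteasome inhibitor MG132 added 30 min after compound; luciferase reporter driven by HSF1 response element in NIH3T3 cells; actives raise luminescence as potentiators of the MG132 stress response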
T4 sequence (P38532 whole entry): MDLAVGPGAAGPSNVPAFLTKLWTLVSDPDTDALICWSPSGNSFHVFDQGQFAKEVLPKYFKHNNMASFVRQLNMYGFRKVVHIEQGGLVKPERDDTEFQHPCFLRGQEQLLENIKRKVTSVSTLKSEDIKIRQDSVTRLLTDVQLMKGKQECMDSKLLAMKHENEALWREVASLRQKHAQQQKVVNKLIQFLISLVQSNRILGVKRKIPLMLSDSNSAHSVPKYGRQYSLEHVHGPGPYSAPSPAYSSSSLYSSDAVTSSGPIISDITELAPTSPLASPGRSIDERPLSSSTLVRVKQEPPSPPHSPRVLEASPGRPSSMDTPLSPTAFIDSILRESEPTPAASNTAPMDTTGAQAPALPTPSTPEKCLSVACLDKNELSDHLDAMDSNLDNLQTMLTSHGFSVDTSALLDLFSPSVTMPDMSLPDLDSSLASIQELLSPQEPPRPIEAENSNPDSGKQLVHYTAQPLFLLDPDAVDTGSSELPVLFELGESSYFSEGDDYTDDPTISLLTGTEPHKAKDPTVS

[6] = target: T5, Replicative DNA helicase DnaB (Mycobacterium tuberculosis, UniProt P9WMR3); assay: DnaB intein splicing inhibitors, dose response, biochemical, cell-free fluorescence (AID 449749); type: functional
T5 sequence (P9WMR3 whole entry): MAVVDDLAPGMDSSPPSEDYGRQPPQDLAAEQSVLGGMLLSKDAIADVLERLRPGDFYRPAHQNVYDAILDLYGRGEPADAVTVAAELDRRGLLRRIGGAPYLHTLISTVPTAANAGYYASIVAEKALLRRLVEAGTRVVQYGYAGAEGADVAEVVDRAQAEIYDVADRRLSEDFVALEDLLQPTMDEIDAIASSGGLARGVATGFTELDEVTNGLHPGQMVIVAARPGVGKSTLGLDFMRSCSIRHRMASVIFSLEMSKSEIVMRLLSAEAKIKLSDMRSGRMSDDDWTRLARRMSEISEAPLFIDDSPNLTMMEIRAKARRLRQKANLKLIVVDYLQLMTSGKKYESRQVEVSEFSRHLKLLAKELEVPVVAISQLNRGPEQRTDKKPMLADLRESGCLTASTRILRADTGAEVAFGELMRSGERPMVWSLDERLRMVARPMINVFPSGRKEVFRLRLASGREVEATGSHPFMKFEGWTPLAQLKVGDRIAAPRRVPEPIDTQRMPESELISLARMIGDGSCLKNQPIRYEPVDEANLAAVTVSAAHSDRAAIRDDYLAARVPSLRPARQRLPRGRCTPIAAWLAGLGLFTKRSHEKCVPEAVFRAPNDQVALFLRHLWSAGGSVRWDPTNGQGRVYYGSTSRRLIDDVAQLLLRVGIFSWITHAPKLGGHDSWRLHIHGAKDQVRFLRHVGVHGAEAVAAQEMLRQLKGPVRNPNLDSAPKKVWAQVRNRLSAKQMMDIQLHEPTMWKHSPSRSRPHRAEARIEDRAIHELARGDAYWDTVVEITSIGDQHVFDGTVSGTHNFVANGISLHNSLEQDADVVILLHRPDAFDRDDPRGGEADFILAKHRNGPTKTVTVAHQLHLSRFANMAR

Protein RecA = target: T6, Protein RecA (Mycobacterium tuberculosis, UniProt P9WHJ3); assay: Fluorescence Cell-Free Homogeneous Dose Retest to Identify Inhibitors of RecA-Intein Splicing Activity. [Related pubchem assays (depositor defined):AID2097, AID2223, AID489010, AID492950]; type: functional
T6 sequence (P9WHJ3 whole entry): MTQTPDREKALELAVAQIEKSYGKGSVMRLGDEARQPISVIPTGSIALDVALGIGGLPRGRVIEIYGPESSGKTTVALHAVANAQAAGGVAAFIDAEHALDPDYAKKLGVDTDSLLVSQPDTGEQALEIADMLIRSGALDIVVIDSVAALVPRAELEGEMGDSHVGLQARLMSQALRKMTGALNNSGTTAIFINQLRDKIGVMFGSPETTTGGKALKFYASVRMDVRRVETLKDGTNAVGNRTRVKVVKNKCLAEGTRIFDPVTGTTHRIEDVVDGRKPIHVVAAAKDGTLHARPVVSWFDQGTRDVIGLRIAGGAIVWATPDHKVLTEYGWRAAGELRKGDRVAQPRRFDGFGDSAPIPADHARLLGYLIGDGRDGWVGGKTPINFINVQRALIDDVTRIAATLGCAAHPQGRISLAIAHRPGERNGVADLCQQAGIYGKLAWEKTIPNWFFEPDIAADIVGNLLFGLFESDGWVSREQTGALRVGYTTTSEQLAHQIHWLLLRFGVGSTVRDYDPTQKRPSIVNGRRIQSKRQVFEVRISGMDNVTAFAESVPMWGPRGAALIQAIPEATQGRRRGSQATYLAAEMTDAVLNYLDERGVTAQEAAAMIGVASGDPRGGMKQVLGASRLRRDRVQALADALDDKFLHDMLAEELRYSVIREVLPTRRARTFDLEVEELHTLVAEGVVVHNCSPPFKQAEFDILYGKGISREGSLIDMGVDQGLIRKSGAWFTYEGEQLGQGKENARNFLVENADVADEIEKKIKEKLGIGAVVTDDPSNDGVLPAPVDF

[7] = inhibitors of intracellular T. cruzi replication, confirmation, NIH3T3 host cells, beta-gal luminescence (AID 2044); type: functional, cell-based;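 further: intracellular parasites grown in NIH/3T3 mouse fibroblasts as host cells; luminescent beta-galactosidase reporter signal from transgenic T. cruzi replicating inside host cells; inhibitors lower the luminescence signal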
[8] = cytotoxicity toward NIH3T3 fibroblasts, dose response, counter-screen, cell-based, ATP luminescence, mouse fibroblasts (AID 2010); type: functional;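 further: cells exposed to compound for about 90 hours before reading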

Sequence of Cytochrome P450 2D6 (P10635 whole entry): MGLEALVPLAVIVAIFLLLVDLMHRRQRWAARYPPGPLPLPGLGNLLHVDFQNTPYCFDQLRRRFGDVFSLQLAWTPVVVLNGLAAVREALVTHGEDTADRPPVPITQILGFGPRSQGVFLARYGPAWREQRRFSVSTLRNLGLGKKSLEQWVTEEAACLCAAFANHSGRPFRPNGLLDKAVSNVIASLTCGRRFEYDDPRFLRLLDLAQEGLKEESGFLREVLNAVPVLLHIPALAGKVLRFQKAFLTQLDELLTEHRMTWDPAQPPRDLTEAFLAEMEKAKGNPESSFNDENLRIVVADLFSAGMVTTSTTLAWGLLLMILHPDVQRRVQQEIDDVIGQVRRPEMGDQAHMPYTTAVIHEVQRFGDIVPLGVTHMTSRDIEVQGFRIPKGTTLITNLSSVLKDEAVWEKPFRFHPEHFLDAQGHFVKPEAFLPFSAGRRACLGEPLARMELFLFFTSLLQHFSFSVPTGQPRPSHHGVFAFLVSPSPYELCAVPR
Sequence of Cytochrome P450 3A4 (P08684 whole entry): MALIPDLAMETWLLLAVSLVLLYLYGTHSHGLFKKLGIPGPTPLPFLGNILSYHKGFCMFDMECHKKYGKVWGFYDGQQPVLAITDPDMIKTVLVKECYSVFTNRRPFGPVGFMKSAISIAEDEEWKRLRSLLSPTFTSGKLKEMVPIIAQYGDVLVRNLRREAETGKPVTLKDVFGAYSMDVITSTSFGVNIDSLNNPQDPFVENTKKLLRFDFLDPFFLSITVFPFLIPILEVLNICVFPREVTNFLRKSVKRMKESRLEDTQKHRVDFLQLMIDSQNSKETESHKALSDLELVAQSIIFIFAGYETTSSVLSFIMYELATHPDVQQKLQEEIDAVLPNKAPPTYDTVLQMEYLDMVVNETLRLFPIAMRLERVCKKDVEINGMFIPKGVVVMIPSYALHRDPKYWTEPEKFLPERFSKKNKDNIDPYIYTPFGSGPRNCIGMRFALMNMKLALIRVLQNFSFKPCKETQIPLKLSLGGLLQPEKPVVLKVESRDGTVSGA

## COCC/N=C1/Sc2nc3ccc(C)cc3cc2CN1Cc1ccco1
[1]
  CC50: > 40 µM (active)

## Cc1ccc(C(C)(C)C)cc1S(=O)(=O)N1CCC(C(=O)N2CCN(c3ccc(O)cc3)CC2)CC1
[2]
  IC50: 99.1 µM (active)

## Cc1ccccc1-c1ccc([C@H]2[C@H]3CNC[C@@H]2N3S(=O)(=O)c2cccc(F)c2)cc1
[3]
  AC50: 35.7 µM (active)

## O=C1N=C(Nc2ccccc2)S/C1=C\C=C\c1ccco1
[1]
  CC50: 39.3 µM (active)

## CN1CC(=O)N(CC(=O)Nc2ccc(N(C)C)cc2)c2ccccc2C1=O
[2]
  IC50: 56.7 µM (active)

## CCCCCCCCSc1nnc(CSc2nc3nc(C)cc(C)n3n2)o1
INS1
  AC50: 14.9 µM (active)
Cytochrome P450 2D6
  AC50: 28.2 µM (inconclusive)
Cytochrome P450 1A2
  AC50: 31.6 µM (inconclusive)
Cytochrome P450 3A4
  AC50: 35.5 µM (inconclusive)

## Cc1oc(C(C)(C)C)cc1C(=O)N1CCN(C(c2ccccc2)c2ccccc2)CC1
[4]
  EC50: 2.64 µM (active)
Streptokinase A
  EC50: 17.6 µM (active)
Streptococcus
  EC50: 16.4 µM (active)

## CCCCCCCCCCCCC(NC(C)=O)(C(=O)OCC)C(=O)OCC
[4]
  EC50: 6.45 µM (active)
Streptokinase A
  EC50: > 150 µM (not active)
Streptococcus
  EC50: 8.56 µM (active)

## O=C(NNC(=S)NC(=O)c1ccco1)c1ccc(NC(=O)c2ccccc2)cc1
[4]
  EC50: 0.973 µM (active)
Streptokinase A
  EC50: > 150 µM (not active)
Streptococcus
  EC50: 9.14 µM (active)

## COc1ccc(-n2c(=S)[nH]c3cc(C(=O)Nc4ccccc4OC)ccc3c2=O)cc1
INS1
  AC50: 6.62 µM (active)

## CCOC(=O)c1nnc(-c2ccccc2)nc1Sc1ccccc1Cl
[1]
  CC50: > 40 µM (active)
[5]
  EC50: 8.48 µM (active)
[6]
  AC50: 2.36 µM (active)
Protein RecA
  EC50: 0.686 µM (active)

## CC12CCC(C(=O)Nc3cccc(Cl)c3Cl)([C@H](Br)C1=O)C2(C)C (stereo partly specified)
[4]
  EC50: > 150 µM (not active)
Streptokinase A
  EC50: > 150 µM (not active)
Streptococcus
  EC50: > 150 µM (not active)

## CC1(C)S[C@@H]2[C@H](NC(=O)COc3ccccc3)C(=O)N2C1C(=O)OCc1cc2ccccc2n1S(=O)(=O)c1ccccc1 (stereo partly specified)
[4]
  EC50: 6.32 µM (active)
Streptokinase A
  EC50: 23.6 µM (active)
Streptococcus
  EC50: 39.9 µM (active)

## CCn1c2ccccc2c2cc(CN3CCN(Cc4cc(OC)ccc4O)CC3)ccc21
[7]
  EC50: 1.21 µM (active)
[1]
  CC50: > 40 µM (active)
[8]
  EC50: > 60 µM (not active)

## C/C(=N/Nc1nc(-c2ccccc2)cc(-c2ccc(F)cc2)n1)c1cccc(N)c1
INS1
  AC50: 3.64 µM (active)

## COCCn1nnnc1C(c1cc2cc(OC)ccc2nc1O)N1CCC(Cc2ccccc2)CC1 (stereo unspecified)
[1]
  CC50: > 40 µM (active)

## CC(C(=O)N1CCCc2ccccc21)N1CCN(c2ccccn2)CC1 (stereo unspecified)
[2]
  IC50: 93.9 µM (active)

## O=C(N/C(=C\c1ccc(O)cc1)C(=O)N1CCCCC1)c1ccccc1
[2]
  IC50: 47.3 µM (active)

## O=[N+]([O-])c1cc(Cl)c(O)c(-[n+]2c(-c3ccccc3)cc(-c3ccccc3)cc2-c2ccccc2)c1.[O-][Cl+3]([O-])([O-])[O-]
[1]
  CC50: > 40 µM (active)

## COc1ccccc1NC(=O)Nc1nc(CC(=O)Nc2cc(F)ccc2F)cs1
[4]
  EC50: 11.5 µM (active)
Streptokinase A
  EC50: > 150 µM (not active)
Streptococcus
  EC50: 30.9 µM (active)

## COc1ccc(NC2CCCN(C(=O)c3cc(C)nc4cc(F)ccc34)C2)cc1 (stereo unspecified)
[2]
  IC50: 120 µM (active)
